Measurements published in patent US11185551B2, “Peripherally-restricted dual-acting kappa and delta opioid agonist for analgesia in pain states involving the inflammatory response” (Caventure Drug Discovery, Inc., priority 2017, dated 2021).

Legend:
[1] = tested on: CFA-induced mechanical hyperalgesia; experiment: CFA model of rheumatoid arthritis pain in rats (joint compression thresholds); assay type: in vivo, male Sprague-Dawley rats; conditions: for improvement of compression thresholds vs vehicle: 30 mg/kg PO
Protocol: Following IACUC approval and acclimation, inflammatory arthritis pain was induced in 55 male, Sprague-Dawley rats by intracapsular injection of 50 μL of 100% complete Freund's adjuvant (CFA) into the tibio-tarsal joint of the left hind leg. Mechanical hyperalgesia was assessed via joint compression thresholds (JCTs), JCTs were determined prior to CFA injection and 14 days post-CFA, prior to study article administration. At that time, 50 animals that met the inclusion criterion were randomly assigned to 5 groups with 10 animals per group (Table 3). To further confirm the validity as a model for arthritic pain, the anti-inflammatory cyclooxygenase-2 inhibitor, celecoxib, was used as an active control.
(§1) Animals were administered a single dose of test or control compound on day 0 (i.e., 14 days after administration of CFA) and thresholds were determined 1, 2, and 4 hours after compound administration. JCTs in test compound-treated animals were compared to those in vehicle-treated animals to determine the analgesic efficacy of the test compound. All behavioral evaluations were performed by a blinded observer.
Mechanical hyperalgesia was measured using a digital Randall-Selitto device (dRS; IITC Life Sciences©; Woodland Hills, Calif.; see Randall, L. O., and J. J. Selitto, “A Method for Measurement of Analgesic Activity on Inflamed Tissue.” Arch. Int. Pharmcodyn. 11 (1957): 409-19). Animals were allowed to acclimate to the testing room for a minimum of 15 minutes before testing. Animals were placed in a restraint sling that suspended the animal, leaving the hind limbs available for testing. The stimulus was applied to the ankle joint by a blunt tip and pressure was applied gradually over approximately 10 seconds. Joint compression threshold values were recorded at the first observed nocifensive behavior (vocalization, struggle, or withdrawal). One reading per joint was taken at each time point, and a maximum stimulus cutoff of 500 grams was used to prevent injury to the animal. The mean and standard error of the mean (SEM) were determined for ipsilateral and contralateral joints for each treatment group at each time point.
All testing was performed in a blinded manner, with all experimenters involved in the study being unaware of the group assignment of any animal they were testing. Animals were assigned to treatment groups based on Day 0 pre-dosing JCTs so that group means of the ipsilateral JCTs were approximately equal. Animals were ranked by ipsilateral JCT and treatments assigned randomly within stratified sub-groups according to the total number of treatment groups in the study. The volume of test or control article injected was 5 mL/kg. The animals were dosed in sequence based on animal number so that the distribution of treatment across a given set of animals was not predictable.

[2] = tested on: formalin-evoked spontaneous nociceptive behaviors; experiment: Formalin model of pain in mice; assay type: in vivo, C57BL6 mice
Protocol: The objective of this study was to evaluate the effects of Compound 1 and a peripherally-restricted kappa agonist (ICI204448) on formalin-evoked spontaneous nociceptive behaviors in mice. The study was performed by video recording of formalin-induced nociceptive behavior and then off-line scoring using a computer.
Subcutaneous plantar injection of formalin causes a bi-phasic nocifensive behavioral response in rodents. The early phase (phase 1) lasts for about 5-10 minutes, following which an interphase occurs without any discernible nociceptive reactions, after which the late phase (phase 2) nociceptive reaction ensues continuing from about 20-60 min following formalin injection. Thus, phase 2 of the formalin model is a model of continuously present, persistent pain, and is widely used for rapid screening of novel analgesic compounds. The model encompasses inflammatory, neurogenic and central mechanisms of nociception, and the late phase (phase 2), in particular, is considered as a pharmacodynamic surrogate of central sensitization.
In the present study, the effects of Compound 1 and ICI204448 were assessed from 0-5 minutes for the early phase (phase 1) and from 20-35 minutes for the late phase (phase 2) of formalin-induced nociceptive behavior.
Following IACUC approval and acclimation C57BL6 mice (Charles River Canada Inc.), 20-30 g, were randomly assigned into groups with 8 mice per group as provided in Table 1:
All animals were acclimated to the observation chamber for about 15 minutes immediately prior to formal in injection. […]
Following injection of the formalin all animals were returned immediately to the observation chamber and formalin-evoked spontaneous nociceptive behaviors in the mice were continuously recorded for 0-40 minutes using a commercial camcorder. […]
Scoring from the recorded video files were done off-line using a computer by a blinded observer who has been validated to score such nociceptive behaviors in rodents. The total (cumulative) time spent in a 5-minute bin was recorded using a stop-watch for the following nociceptive behaviors: biting and licking of the formalin-injected paw.
Effects of the ICI204448 or Compound 1 were assessed in the following time periods: 0-5 minutes for the early phase (phase 1) and 20-35 minutes for the late phase (phase 2).
Mice were injected with formalin in the hind paw after pretreatment with vehicle, high and low doses of a peripherally-restricted kappa opioid agonist (ICI204448) and high and low doses of the peripherally-restricted Compound 1. Pain was measured for 35 minutes after injection. Additionally, urine output was measured using metabolic cages in each group of mice. […]

[3] = tested on: SNL-induced mechanical hyperalgesia; experiment: Spinal nerve ligation (SNL) model for neuropathic pain in the rat (paw compression thresholds); assay type: in vivo, male Sprague-Dawley rats
Protocol: Following IACUC approval and acclimation, neuropathy was induced in 55 male, Sprague-Dawley rats by surgically ligating the 5th and 6th lumbar spinal nerves (L5 and L6), a procedure also known as spinal nerve ligation (SNL). Mechanical sensitivity was assessed via paw compression thresholds using a digital Randall-Selitto device. Thresholds were determined prior to surgery and 15 days post-surgery, prior to study article administration. At that time, 50 animals that met the inclusion criteria were assigned to 5 groups with 10 animals per group (Table 5). To further confirm the validity as a model for neuropathic pain, gabapentin was used as an active control.
as §1, with “15” for “14”, “SNL)” for “administration of CFA)”, “Response thresholds” for “JCTs”
Mechanical hyperalgesia was measured using a digital Randall-Selitto device (dRS; IITC Life Sciences©; Woodland Hills, Calif.) (see Randall, L. O., and J. J. Selitto. “A Method for Measurement of Analgesic Activity on Inflamed Tissue.” Arch. Int. Pharmcodyn. 11 (1957): 409-19). Animals were allowed to acclimate to the testing room for a minimum of 15 minutes before testing. Animals were placed in a restraint sling that suspends the animal, leaving the hind limbs available for testing. The stimulus was applied to the plantar surface of the hind paw by a cone-shaped tip and pressure was applied gradually over approximately 10 seconds. Paw compression threshold values were recorded at the first observed nocifensive behavior (vocalization, struggle, or withdrawal). One reading per paw was taken at each time point, and a maximum stimulus cutoff of 300 grams was used to prevent injury to the animal. The mean and standard error of the mean (SEM) were determined for ipsilateral and contralateral paws for each treatment group at each time point.
All testing was performed in a blinded manner, with all experimenters involved in the study being unaware of the group assignment of any animal they were testing.
Animals were assigned to treatment groups based on Day 0 pre-dosing dRS paw compression thresholds so that group means of the ipsilateral paw compression thresholds were approximately equal. Animals were ranked by ipsilateral paw compression threshold measurement from lowest to highest and treatments assigned randomly within stratified sub-groups according to the total number of treatment groups in the study.
The volume of test or control article injected was 5 mL/kg. The animals were dosed in sequence based on animal number, so that the distribution of treatment across a given set of animals was not predictable.

[4] = tested on: osteolytic bone cancer pain induced by MRMT-1 inoculation; experiment: MRMT-1 model of osteolytic bone cancer pain in the rat (percent weight bearing score); assay type: in vivo, female Sprague-Dawley rats
Protocol: Osteolytic bone cancer was produced by an injection of 3000 mammary gland carcinoma cells (MRMT-1) into the intramedullary space of the tibia. Animals received either vehicle or Compound 1 (10 mg/kg) intraperitoneally on Day 0. Morphine (6 mg/kg) served as the positive control for this study and was administered via subcutaneous injection. Bone cancer pain was assessed by measuring hind limb percent weight bearing scores (percent WBS) prior to inoculation (study day −21), and prior to administration (BL), 1, 2, and 4 hours after administration on Day 0.
Hind limb weight bearing scores (WBS) are measured using a Linton Incapacitance Tester (Stoelting Co.©, Wood Dale, Ill.; see Medhurst, S. J., K. Walker, M. Bowes, B. L. Kidd, M. Glatt, M. Muller, M. Hattenberger, J. Vaxelaire, T. O'Reilly, G. Wotherspoon, J. Winter, J. Green, and L. Urban. “A Rat Model of Bone Cancer Pain.” Pain 96 (2002): 129-40). Animals were allowed to acclimate to the testing room for a minimum of 15 minutes before testing. Animals are placed in an acrylic test chamber. When the animal is in the correct position in the test chamber an evaluation of force was taken, with the evaluation measuring the average force exerted individually by each hind paw over a three second interval. Three evaluations of force per animal are taken at each time point. The percent WBS for the injured leg is calculated for each evaluation of force using the following formula: […]
The mean of the 3% WBS values is taken as the % WBS for that time point. The mean and standard error of the mean (SEM) are determined for each treatment group at each time point.
Dosing: The volume of test or negative control article injected was 5 mL/kg via intraperitoneal injection or 2 mL/kg via subcutaneous injection for morphine. The animals were dosed in sequence based on animal number, so that the distribution of treatment across a given set of animals was not predictable (Table 7).

SMILES: Cc1ccc(-c2cc(C(F)(F)F)nn2-c2ccc(S(N)(=O)=O)cc2)cc1 [Celecoxib, reference compound]
- improvement of compression thresholds vs vehicle ([1]; 1-hour): did not significantly improve thresholds
- improvement of compression thresholds vs vehicle ([1]; 2-hour and 4-hour): did show improvement compared to vehicle

SMILES: CC(C)C[C@H]1CN2C(=CC3=NC[C@H](C(C)C)N3C[C@@H]2Cc2ccc(O)cc2)N1CCc1ccccc1 [Compound 1, 4-(((2S,5S,8S)-2-isobutyl-8-isopropyl-1-phenethyl-2,3,5,6,8,9-hexahydro-1H-diimidazo[1,2-d:2′,1′-g][1,4]diazepin-5-yl)methyl)phenol]
- pain behaviors, effect of low dose ([2]; 1 mg/kg IP, phase 2, compared with ICI204448 10 mg/kg): the same effect as a high dose of ICI204448
- pain response, effect of high dose ([2]; 10 mg/kg IP, phase 2): complete elimination of the pain response
- time spent on pain (nociceptive) behaviors vs ICI204448 ([2]; 30-35 minutes, Compound 1 dose less than 10% of ICI204448 on a molar basis): at least as effective as ICI204448
- pain behaviors (biting and licking of formalin-injected paw) ([2]; IP 30 min before formalin, 20-25, 25-30, 30-35 minutes (phase 2), compared with vehicle and ICI204448): reduced pain behaviors
- reversal of mechanical hyperalgesia (JCT) ([1]; 1 mg/kg IP, 2-hour and 4-hour): significantly reversed mechanical hyperalgesia
- reversal of mechanical hyperalgesia (JCT) ([1]; 5 mg/kg IP, 2-hour and 4-hour): significantly reversed mechanical hyperalgesia
- reversal of mechanical hyperalgesia (JCT) ([1]; 10 mg/kg IP, 1, 2, and 4 hours post dose): significantly reversed mechanical hyperalgesia
- reversal in mechanical hyperalgesia compared with active control ([1]; Compound 1 IP vs celecoxib 30 mg/kg PO): comparable to the active control, celecoxib
- reversal of SNL-induced mechanical hyperalgesia ([3]; 1 mg/kg IP, any time point tested (1, 2, 4 hours)): did not significantly reverse SNL-induced mechanical hyperalgesia
- reversal of SNL-induced mechanical hyperalgesia ([3]; 5 mg/kg IP, 1-hour): did not significantly reverse SNL-induced mechanical hyperalgesia
- reversal of SNL-induced mechanical hyperalgesia ([3]; 5 mg/kg IP, 2-hour and 4-hour): did significantly reverse SNL-induced mechanical hyperalgesia
- reversal of SNL-induced mechanical hyperalgesia ([3]; 10 mg/kg IP, 1-hour): did not significantly reverse SNL-induced mechanical hyperalgesia
- reversal of SNL-induced mechanical hyperalgesia ([3]; 10 mg/kg IP, 2-hour and 4-hour): did significantly reverse SNL-induced mechanical hyperalgesia
- reversal of mechanical hyperalgesia compared with active control ([3]; Compound 1 5 mg/kg and 10 mg/kg vs gabapentin 100 mg/kg): did not differ significantly from the active control, gabapentin
- reversal of hind limb weight bearing asymmetry vs pre-dosing baseline ([4]; 10 mg/kg IP, 4 hours): significant reversal of hind limb weight bearing asymmetry

SMILES: NCC1(CC(=O)O)CCCCC1 [Gabapentin, reference compound]
- reversal of SNL-induced mechanical hyperalgesia ([3]; 100 mg/kg IP, 1, 2, and 4-hours): significantly reversed SNL-induced mechanical hyperalgesia

SMILES: CN1CC[C@]23c4c5ccc(O)c4O[C@H]2[C@@H](O)C=C[C@H]3[C@H]1C5 [Morphine]
- reversal of hind limb weight bearing asymmetry vs pre-dosing baseline ([4]; 6 mg/kg subcutaneous, 1 and 2 hours): time-dependent reversal of hind limb weight bearing asymmetry
- improvement in weight-bearing ([4]; 6 mg/kg subcutaneous, 4-hours): did not produce significant improvement
